Calls of active or inactive are those of the source. The calls are words filed in the database; no cut-off is given here.
Columns and labels:
[1] = biological target: T1, Protein cereblon/Alpha-synuclein (Homo sapiens) (UniProt P37840+Q96SW2); assay: PROTAC activity at CRBN/recombinant alpha-synuclein preformed fibrils seeded in HEK293T cells assessed as decrease in alpha-synuclein aggregates upto 40 uM measured after 48 hrs by immunoblot analysis; format: cell-based
HEK-293T [2] = assay: Effect on alpha-synuclein total level in HEK293T cells seeded with recombinant alpha-synuclein preformed fibrils upto 40 uM measured after 48 hrs by immunoblot analysis; format: functional, cell-based; settings: Homo sapiens
HEK-293T [3] = assay: Effect on alpha-synuclein total level in HEK293T cells upto 40 uM measured after 48 hrs by immunoblot analysis; format: functional, cell-based; settings: Homo sapiens
HEK-293T [4] = assay: Downregulation of alpha-synuclein in HEK293T cells seeded with recombinant alpha-synuclein preformed fibrils at 10 uM incubated for 24 hrs by label free quantification based proteomics analysis; format: functional, cell-based; settings: Homo sapiens
HEK-293T [5] = assay: Activation of autophagy-lysosome pathway in HEK293T cells seeded with recombinant alpha-synuclein preformed fibrils assessed as increase in LC3B-II/I ratio at 10 uM incubated for 6 hrs by immunoblot analysis; format: functional, cell-based; settings: Homo sapiens
HEK-293T [6] = assay: Activation of autophagy-lysosome pathway in HEK293T cells seeded with recombinant alpha-synuclein preformed fibrils assessed as decrease in p62 level at 10 uM incubated for 6 hrs by immunoblot analysis; format: functional, cell-based; settings: Homo sapiens
HEK-293T [7] = assay: Activation of autophagy-lysosome pathway in HEK293T cells seeded with recombinant alpha-synuclein preformed fibrils harboring adenovirus-mCherry-GFP-LC3B assessed as increase in LC3B punctae number at 10 uM treated for 6 hrs by DAPI staining based confocal laser scanning microscopic analysis; format: functional, cell-based; settings: Homo sapiens
HEK-293T [8] = assay: Activation of autophagy-lysosome pathway in HEK293T cells seeded with recombinant alpha-synuclein preformed fibrils harboring adenovirus-mCherry-GFP-LC3B assessed as increase in LC3B punctae density at 10 uM treated for 6 hrs by DAPI staining based confocal laser scanning microscopic analysis; format: functional, cell-based; settings: Homo sapiens
HEK-293T [9] = assay: Activation of autophagy-lysosome pathway in HEK293T cells seeded with recombinant alpha-synuclein preformed fibrils harboring adenovirus-mCherry-GFP-LC3B assessed as increase in GFP(-) punctae ratio at 10 uM treated for 6 hrs by DAPI staining based confocal laser scanning microscopic analysis; format: functional, cell-based; settings: Homo sapiens
HEK-293T [10] = assay: Activation of autophagy-lysosome pathway in HEK293T cells seeded with recombinant alpha-synuclein preformed fibrils assessed as increase in LAMP1 expression at 10 uM incubated for 6 hrs by immunoblot analysis; format: functional, cell-based; settings: Homo sapiens
HEK-293T [11] = assay: Activation of autophagy-lysosome pathway in HEK293T cells seeded with recombinant alpha-synuclein preformed fibrils assessed as increase in lysosome generation at 10 uM incubated for 6 hrs by LyTR staining based confocal laser scanning microscopic analysis; format: functional, cell-based; settings: Homo sapiens
[12] = 1-Octanol-water partition coefficient, logP of the compound incubated for 24 hrs by HPLC analysis; format: physicochemical
[13] = Drug uptake in HEK293T cell membrane at 10 uM measured at 5 to 360 min by confocal laser scanning microscopic analysis; format: ADME, cell membranes; settings: human, hek-293t, time 5-360 min
SH-SY5Y [14] = assay: Neuroprotective activity against alpha-synuclein aggregate-induced cell death in human SH-SY5Y cells over-expressing alpha-synuclein preformed fibrils assessed as decrease in cell death at 10 uM by CCK8 assay; format: functional, cell-based
SH-SY5Y [15] = assay: Neuroprotective activity against alpha-synuclein aggregate-induced cell injury in human SH-SY5Y cells over-expressing alpha-synuclein preformed fibrils assessed as decrease in LDH release at 10 uM by LDH assay; format: functional, cell-based
Caenorhabditis elegans [16] = assay: In vivo PROTAC activity at CRBN/Alpha-synuclein overexpressed in Caenorhabditis elegans NL5901 co-expressing YFP fusion protein assessed as induction of alpha-synuclein aggregate degradation incubated for 48 hrs by immunoblot analysis; format: functional, organism-based; settings: dose 20-80 µM
Caenorhabditis elegans [17] = assay: In vivo PROTAC activity at CRBN/Alpha-synuclein overexpressed in Caenorhabditis elegans NL5901 co-expressing YFP fusion protein assessed as induction of alpha-synuclein aggregate degradation incubated for 48 hrs by dot blot analysis; format: functional, organism-based; settings: dose 20-80 µM
Caenorhabditis elegans [18] = assay: In vivo PROTAC activity at CRBN/Alpha-synuclein overexpressed in Caenorhabditis elegans NL5901 co-expressing YFP fusion protein assessed as reduction in alpha-synuclein-YFP level at 20 to 80 uM incubated for 48 hrs by confocal laser scanning microscopic analysis; format: functional, organism-based; settings: dose 20-80 µM
Caenorhabditis elegans [19] = assay: In vivo PROTAC activity at CRBN/Alpha-synuclein overexpressed in Caenorhabditis elegans NL5901 co-expressing YFP fusion protein assessed as reduction in alpha-synuclein-YFP MFI at 20 to 80 uM incubated for 48 hrs by confocal laser scanning microscopic analysis; format: functional, organism-based; settings: dose 20-80 µM
[20] = biological target: von Hippel-Lindau disease tumor suppressor/Alpha-synuclein (Homo sapiens) (UniProt P37840+P40337); assay: PROTAC activity at VHL/recombinant alpha-synuclein preformed fibrils seeded in HEK293T cells assessed as decrease in alpha-synuclein aggregates upto 40 uM measured after 48 hrs by immunoblot analysis; format: cell-based
[21] = biological target: T1, Protein cereblon/Alpha-synuclein (Homo sapiens); assay: PROTAC activity at CRBN/recombinant alpha-synuclein preformed fibrils seeded in HEK293T cells assessed as decrease in alpha-synuclein aggregates at 5 to 20 uM measured after 48 hrs by immunoblot analysis; format: cell-based; settings: dose 5-20 µM
[22] = biological target: Baculoviral IAP repeat-containing protein 2/Alpha-synuclein (Homo sapiens) (UniProt Q13490+P37840); assay: PROTAC activity at cIAP1/recombinant alpha-synuclein preformed fibrils seeded in HEK293T cells assessed as decrease in alpha-synuclein aggregates upto 40 uM measured after 48 hrs by immunoblot analysis; format: cell-based

For O=C(CNc1cccc(-c2cc(-c3ccc4c(c3)OCO4)n[nH]2)c1)NCCOCCOCCNc1cccc2c1C(=O)N(C1CCC(=O)NC1=O)C2=O (stereo not given), the Activity [1] was “Active”.

For O=C(CNc1cccc(-c2cc(-c3ccc4c(c3)OCO4)n[nH]2)c1)NCCOCCOCCOCCNc1cccc2c1C(=O)N(C1CCC(=O)NC1=O)C2=O (stereo not given), the Activity (HEK-293T [2]) was “inactive”, the Activity (HEK-293T [3]) was “inactive” and the Activity (HEK-293T [4]) was “Active”. The Activity (HEK-293T [5]) was “Active”, the Activity (HEK-293T [6]) was “Active” and the Activity (HEK-293T [7]) was “Active”. For the same compound, the Activity (HEK-293T [8]) was “Active”, the Activity (HEK-293T [9]) was “Active” and the Activity (HEK-293T [10]) was “Active”. For the same compound, the Activity (HEK-293T [11]) was “Active”, the logP at 24 h [12] was 2.04 and the Drug uptake [13] was “Active”. The Activity (SH-SY5Y [14]) was “Active”, the Activity (SH-SY5Y [15]) was “Active” and the Activity (Caenorhabditis elegans [16]) was “Dose-Dependent Effect”. For the same compound, the Activity (Caenorhabditis elegans [17]) was “Dose-Dependent Effect”, the Activity (Caenorhabditis elegans [18]) was “Active” and the Activity (Caenorhabditis elegans [19]) was “Active”.

With Cc1ncsc1-c1ccc([C@H](C)NC(=O)[C@@H]2C[C@@H](O)CN2C(=O)[C@@H](NC(=O)CCOCCOCCOCCNc2cccc(-c3cc(-c4ccc5c(c4)OCO5)n[nH]3)c2)C(C)(C)C)cc1 the Activity [20] was “Active”.

With CN1C(=O)CCC(N2C(=O)c3cccc(NCCOCCOCCOCCNC(=O)CNc4cccc(-c5cc(-c6ccc7c(c6)OCO7)n[nH]5)c4)c3C2=O)C1=O (stereo not given) the Activity [21] was “inactive”.

In the case of Nc1cccc(-c2cc(-c3ccc4c(c3)OCO4)n[nH]2)c1, the Activity [21] is reported as “inactive”.

With Cc1ncsc1-c1ccc([C@H](C)NC(=O)[C@@H]2C[C@@H](O)CN2C(=O)[C@@H](NC(=O)CCOCCOCCNc2cccc(-c3cc(-c4ccc5c(c4)OCO5)n[nH]3)c2)C(C)(C)C)cc1 the Activity [20] was “Active”.

In the case of CC(C)C[C@H](NC(=O)[C@@H](O)[C@H](N)Cc1ccccc1)C(=O)NCCOCCOCCNc1cccc(-c2cc(-c3ccc4c(c3)OCO4)n[nH]2)c1, the Activity [22] is reported as “Active”.

With CC(C)C[C@H](NC(=O)[C@@H](O)[C@H](N)Cc1ccccc1)C(=O)NCCOCCOCCOCCNc1cccc(-c2cc(-c3ccc4c(c3)OCO4)n[nH]2)c1 the Activity [22] was “Active”.

Source: ChEMBL document CHEMBL5338814, “Discovery of Small-Molecule Degraders for Alpha-Synuclein Aggregates” (J Med Chem, 2023)
